Test results reported in US8067422B2, “Crystal form of phenylamino pyrimidine derivatives” (Natco Pharma Limited, priority 2008, dated 2011).
“Also recorded” adds a separate entry of the source.

What was measured:
[1] = system: Baf3 murine leukemia cells (Wt); experiment: Blast cell count in nude mice implanted with Baf3 Wt cells; type: in vivo; details: Baf3Wt; Imatinib 10 mg/kg, AN019 20 mg/kg, AN024 20 mg/kg, oral gavage or ip; day 42
Source text: (§1) Blood smears were obtained via the tail vein or via the femoral vein every 6th day and blast cells counted and graphically represented.
(§2) Abdominal swelling and decrease in activity was monitored daily, blood smear taken via the tail vein or the femoral vein every 6th day and H&E stained as per standard protocols. 42 days after implantation, mice were sacrificed and spleens harvested.
(§3) Nude mice were intraperitoneally implanted with Baf3 mutant cells (wt, T315I, M351T or E255K). […] Blood was drawn from the femoral vein or tail vein every 6th day and blast cell count determined and graphically represented.

[2] = system: MDAMB231 breast cancer cells; experiment: Matrigel invasion assay (modified Boyden chamber), MDA-MB-231; type: cell-based; details: MDA-MB-231
Description: (§4) The in vitro invasiveness of 4910, 5310 and U87 glioma cells and MDAMB231 and ZR71 breast cancer cells in the presence of specified concentrations of compounds were assessed using a modified Boyden chamber assay. Cells were treated with these compounds for 48 h. 1×10^6 cells were suspended in 600 μl of serum-free medium supplemented with 0.2% BSA and placed in the upper compartment of the transwell chambers (Corning Costar Fischer Scientific Cat #07-200-158, Pittsburgh Pa.) coated with Matrigel (0.7 mg/ml). The lower compartment of the chamber was filled with 200 μl of serum medium and the cells were allowed to migrate for 24 h. After incubation, the cells were fixed and stained with Hema-3 and quantified as previously described (Mohanam et al. 1993). The migrated cells were imaged microscopically to determine the reduction in invasiveness induced by the compounds of this invention.

in vivo [3] = details: mouse, po
[4] = system: 4910 human glioma xenograft cells; experiment: Glioma radiation study, nude mice intracranially implanted with 4910 cells; type: in vivo
Description: Nude mice were intracranially implanted with 4910 human glioma xenograft cells (1×10^6 cells). Ten days after implantation mice were treated with AN019, AN024 or temozolomide with or without radiation (5 Gy/week). The experiment was terminated at day 40 post implantation.

K562 cells = experiment: Spleenic enlargement and spleen Crk immunocytochemistry in K562 implanted nude mice; type: in vivo; details: ip injections
Description: Control mice were sacrificed on day 42 when secondary leukemia symptoms were observed, such as abdominal swelling and lack of circulation in the peripherals causing loss of digits with red spots under the skin surface. Spleen and any secondary tumors were harvested, fixed in formaldehyde and paraffin embedded as per standard protocols. Paraffin section were obtained and processed for immunocytochemistry. The rehydrated sections were treated with 0.3% H2O2 to inactivate any native peroxidases prior to immuno-probing. The sections were blocked with filter sterilized (0.22 μm) 1% BSA-PBS at room temperature for 1 h. Following blocking, the sections were immuno-probed with a human specific anti-Crk monoclonal primary antibody raised in rabbit against a synthetic peptide corresponding to residues in the SH2 domain, near the N-term of human CrkL protein (Abcam, Cambridge, Mass., USA) in 1% BSA-PBS overnight. Secondary antibody (anti-rabbit) conjugated to HRP was used to detect the presence of primary antibody. The sections were briefly rinsed three times in PBS solution after immuno-probing with secondary antibody, and DAB HRP substrate was added per manufacture's instructions (Sigma St Louis Mo. USA). The reaction was allowed to proceed until sharp contrast between positive and negative controls was observed. For negative controls primary antibody were eliminated. Leukemic mice spleen served as positive controls.
Mice were sacrificed after a decrease in LGI was observed and spleen harvested. […] Control mice also developed random subcutaneous tumors showing Crk expression, indicative of the presence of K562 cells.

[5] = system: K562 luciferase expressing cells; experiment: Leukemic survival study in nude mice implanted with K562 luciferase expressing cells; type: in vivo
Source text: K562 luciferase expressing cells were implanted intraperitoneally into nude mice; the mice were scanned using the xenogeny IVIS image station after ip injections of luciferin does determine implantations. Drug treatment was started as in previous studies day 15 after implantation. The animals were given treatment till day 42, after which drug treatment was stopped and survival of the animals determined as per the animal care regulations. […] Drug treatment was withdrawn on day 42 post implantation and survival of animals determined.

[6] = system: Baf3 murine leukemia cells (E255K); experiment: Blast cell count in nude mice implanted with Baf3 E255K cells; type: in vivo; details: Baf3 E225K (E255K); Imatinib 10 mg/kg, AN019 20 mg/kg, AN024 20 mg/kg, oral gavage or ip; day 42
Source text: as §1, §2, §3

ZR71 breast cancer cells = experiment: Matrigel invasion assay (modified Boyden chamber), ZR-71; type: cell-based; details: ZR-71
Description: as §4

in vivo [7] = details: mouse
4910 glioma cells = experiment: Matrigel invasion assay (modified Boyden chamber), 4910; type: cell-based, human
Description: as §4

Cc1ccc(NC(=O)c2cc(C(F)(F)F)cc(C(F)(F)F)c2)cc1Nc1nccc(-c2cccnc2)n1 [AN019, (3,5-bis trifluoromethyl)-N-[4-methyl-3-(4-pyridin-3yl-pyrimidin-2ylamino)-phenyl]-benzamide]
Blast cell count in blood smears [1]: complete regression of leukemic blast cells
±Change in invasion after radiation [2]: −30%
LD50 (in vivo [3]): 1130 mg/kg
Intracranial tumour size and appearance ([4]; with radiation (5 Gy/week)): tumor size was significantly reduced
Intracranial tumour size and appearance ([4]; without radiation): tumours similar to AN024 treated animals
Crk expression in spleen (immunohistochemistry) (K562 cells): basal levels of Crk expression; also recorded: only basal level expression
Spleenic enlargement (gross observation) (K562 cells): did not show any spleenic enlargement
Blast cell count from blood smears, effectiveness after withdrawal of drug treatment ([5]; drug treatment withdrawn on day 42): showed effectiveness after withdrawal of drug treatment
Mortality ([5]; treatment day 15 to day 42, then withdrawn, 10 animals): did not show any mortality
Blast cell count in blood smears [6]: significant decrease in blast cell count
±Change in invasion after radiation (ZR71 breast cancer cells): −14%
MTD (in vivo [7]): 500 mg/kg
±Change in invasion after radiation (4910 glioma cells; 4910): −27%
+Radiation % Invasion (4910 glioma cells; 4910, with radiation, 48 h treatment): 15%
